Substitutions are numbered along the chain they refer to.
Legend:
GLUT3 E378A = target: T1, GLUT3 E378A (Homo sapiens, UniProt P11169, E378A/N43T); test: MST binding assay, GLUT3 variant; conditions: read-out: Kd of SA47
T1 construct: His10 (N); made in house; host or cells: Sf9 insect cells (baculovirus)
T1 sequence (P11169 1-496 N43T/E378A): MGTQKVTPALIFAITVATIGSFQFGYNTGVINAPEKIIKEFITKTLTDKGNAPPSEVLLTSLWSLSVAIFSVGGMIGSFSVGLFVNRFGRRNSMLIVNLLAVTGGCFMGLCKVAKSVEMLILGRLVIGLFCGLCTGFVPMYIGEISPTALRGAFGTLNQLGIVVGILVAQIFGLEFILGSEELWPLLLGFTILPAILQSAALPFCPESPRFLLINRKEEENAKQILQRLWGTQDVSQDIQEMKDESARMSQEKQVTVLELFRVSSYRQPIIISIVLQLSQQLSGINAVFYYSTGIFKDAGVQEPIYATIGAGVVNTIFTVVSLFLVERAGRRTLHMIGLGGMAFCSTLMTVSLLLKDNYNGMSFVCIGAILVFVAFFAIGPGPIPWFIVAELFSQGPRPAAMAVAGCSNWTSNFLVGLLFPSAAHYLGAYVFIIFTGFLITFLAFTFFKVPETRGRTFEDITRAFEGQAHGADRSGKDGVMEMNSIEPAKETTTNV
Method: (§1) All mutants were generated by standard PCR-based strategy.
(§2) Inhibitors with serial dilutions were mixed with indicated protein. […] MST analyses were conducted on a Monolith NT. […] The MST data was analyzed by Monolith NT.115.

GLUT3 N315A = target: T2, GLUT3 N315A (Homo sapiens, UniProt P11169, N315A/N43T); test: MST binding assay, GLUT3 variant; conditions: read-out: Kd of SA47
T2 construct: His10 (N); made in house; host or cells: Sf9 insect cells (baculovirus)
T2 sequence (P11169 1-496 N43T/N315A): T1 sequence (P11169 1-496 N43T/E378A) with N315A, A378E
Method: as §1, §2

GLUT3 N413A = target: T3, GLUT3 N413A (Homo sapiens, UniProt P11169, N413A/N43T); test: MST binding assay, GLUT3 variant; conditions: read-out: Kd of SA47
T3 construct: His10 (N); made in house; host or cells: Sf9 insect cells (baculovirus)
T3 sequence (P11169 1-496 N43T/N413A): T1 sequence (P11169 1-496 N43T/E378A) with A378E, N413A
Method: as §1, §2

GLUT3 Q159A = target: T4, GLUT3 Q159A (Homo sapiens, UniProt P11169, N43T/Q159A); test: MST binding assay, GLUT3 variant; conditions: read-out: Kd of SA47
T4 construct: His10 (N); made in house; host or cells: Sf9 insect cells (baculovirus)
T4 sequence (P11169 1-496 N43T/Q159A): T1 sequence (P11169 1-496 N43T/E378A) with Q159A, A378E
Method: as §1, §2

GLUT3 T28A = target: T5, GLUT3 T28A (Homo sapiens, UniProt P11169, N43T/T28A); test: Binding of SA47 to GLUT3 variant; conditions: single point mutation T28A
T5 construct: His10 (N); made in house; host or cells: Sf9 insect cells (baculovirus)
T5 sequence (P11169 1-496 T28A/N43T): T1 sequence (P11169 1-496 N43T/E378A) with T28A, A378E

`COC(=O)CCNCc1ccccc1-n1ncc2c(N3CCN(c4cc(F)ccc4OC)CC3)ncnc21` [SA47] gave a Kd (GLUT3 E378A) of 1100 ± 100 nM, a Kd (GLUT3 N315A) of 9.5 ± 2.2 µM and a Kd (GLUT3 N413A) of 810 ± 214 nM. The Kd (GLUT3 Q159A) was 4.1 ± 0.8 µM and the “SA47 binding to GLUT3 T28A” value (GLUT3 T28A) was “abolished the binding”.

Source: paper PMC9098912, “Molecular basis for inhibiting human glucose transporters by exofacial inhibitors” (Nature Communications, 2022)
